Patent US20070021391A1, “Preventive/remedy for urinary disturbance” (priority 2003, published 2007)
pIC50: −log10 of the molar value. Counter-ions that a name gives are not always drawn. Like-named read-outs stand apart in the source and are kept apart here.

How the values were obtained:
bladder muscle = test system: bladder muscle; set-up: species or system guinea pig; details: for effect on basic tension: drug alone
[1] = test system: Hartley male guinea pig, urethane anesthesia; test: Pressure/flow study using guinea pig under continuous phenylephrine (Example 4); type: in vivo; details: i.v., phenylephrine 3 μg/animal/min
Description: A parameter (the maximum urine flow rate) at urination and a parameter (bladder compliance) at the collection of urine were also measured by a method similar as Example 3 shown below, with respect to the compounds B1 to B6 ([Table 8]).
A Hartley male guinea pig of 4 to 5 weeks old (Japan SLC) was used. After urethane anesthesia, the medial incision of the lower abdomen was carried out, and the bladder was exposed. Two injection needles (20G) with which a polyethylene tube (PE-100) was linked were inserted in the bladder, and one needle was used for injection of saline and another needle was used for measurement of the inner pressure of the bladder. A catheter was inserted in fernoral vein, and phenylephrine was continuously administrated at a flow rate of 3 μg/animal/min. Saline was continuously injected at a speed of 18 mL/h, the injection was stopped after intermittent urination was confirmed 2 times at minimum, and the saline in the bladder was removed by suction. Injection was started again, and the injection was stopped when the raise of the inner pressure of the bladder just before urination was confirmed. The amount of urine eliminated was measured by an electronic weighing machine and the inner pressure of the bladder was measured using a pressure transducer. The analogue data of the weight of urine and the inner pressure of the bladder were inputted in a multi-channel data analyzer (MP-100A-CE, Biopac systems), and analyzed by a proprietary software (Acqknowledge, Biopac systems). As the parameters, the maximum urine flow rate and bladder compliance were measured. Saline in the bladder was extracted after 10 min of the intravenous administration of the compound, and injection was started again to carry out measurement. The compounds were dissolved with DMSO so that administration volume was 0.5 mL/kg. The change rate of respective parameters before and after administration of the compounds was calculated and the calibration of significant difference was carried out by a solvent administration group and t calibration.

[2] = target: T1, acetylcholine esterase of human erythrocyte origin (Homo sapiens, UniProt P22303); test: biochemical; type: biochemical
T1 construct: acetylcholine esterase of human erythrocyte origin; purchased Sigma, St. Louis, Mo., USA; host or cells: human erythrocytes

[3] = target: T2, butyrylcholine esterase of human serum origin (Homo sapiens, UniProt P06276); test: biochemical; type: biochemical
T2 construct: butyrylcholine esterase of human serum origin; purchased Biogenesis, Poole, UK; host or cells: human serum
Description: The AChE inhibitory activity and the BuChE inhibitory activity were determined by a thiocholine method (Ellman method) using acetylcholine esterase of human erythrocyte origin (Sigma, St. Louis, Mo., USA) and butyrylcholine esterase of human serum origin (Biogenesis, Poole, UK). Acetylcholine esterase or butyrylcholine esterase was diluted to a concentration of 0.2 IU/mL with 80 mM tris-HCL buffers (pH=7.4) containing 0.3% bovine serum albumin (BSA) to prepare an enzyme preparation. […] The stock solution was diluted at 3-fold common ratio with 10% DMSO and 80 mM tris-HCl buffers containing 0.3% BSA. On a 96 wells microplate, 20 μL of the drug solution with a given concentration, 30 μL of 80 mM tris-HCl buffers containing 0.3% BSA and 50 μL of the enzyme preparation were distributed, and incubated at room temperature for 1 hour after shaking for 10 seconds. […] For the respective drugs, the test was repeated twice. The % of control of the increase in light absorption was calculated at each concentration with respect to the respective drugs. % of control=increase in light absorption of drug/increase in light absorption of control×100

[4] = test system: Hartley male guinea pig, urethane anesthesia; test: Pressure/flow study using guinea pig (Example 3); type: in vivo; details: for Amount of urination, proportion for value before administration (%) / At maximum urine flow rate Inner pressure of bladder, proportion for value before administration (%) / Maximum urine flow rate, proportion for value before administration (%): i.v.; for Bladder compliance, proportion for value before administration (%) / Bladder volume, proportion for value before administration (%): iv; for change of the parameters at urination and at collection of urine (text): intravenous administration
Description: A Hartley male guinea pig of 5 weeks old (Japan SLC) was used. After urethane anesthesia, the medial incision of the lower abdomen was carried out, and the bladder was exposed. Two injection needles (20G) with which a polyethylene tube (PE-100) was linked were inserted in the bladder, and one needle was used for injection of saline and another needle was used for measurement of the inner pressure of the bladder. The injection of saline was continuously carried out at a rate of 18 mL/h using a syringe pump (SP-100S, JMS, and Hiroshima), the injection was stopped after intermittent urination was confirmed 3 times at minimum, and the saline in the bladder was removed by suction. Injection was started again, and the injection was stopped when the raise of the inner pressure of the bladder just before urination was confirmed. The amount of urine excreted was measured by an electronic weighing machine (HX-400, A&D, and Tokyo) and the inner pressure of the bladder was measured using a pressure transducer (AP641G, NIPPON KODEN Corporation). The analogue data of the weight of urine and the inner pressure of the bladder were inputted in a multi-channel data analyzer (MP-100A-CE, Biopac systems), and analyzed by a proprietary software (Acqknowledge, Biopac systems). The sampling interval of data was 0.1 second and a low pass filter was applied to the data of discharge amount and urine flow rate at 0.5 Hz in order to remove noise. A delay time of 0.1 second in weighing the urine was rectified, and the urine flow rate was determined by differentiating the value of discharge amount. After a value before twice administration of the drug was measured, the drugs (the compound A, distigmine, neostigigmine and bethanechol) were intravenously administrated. Saline in the bladder was extracted after 10 minutes of administration of the compound A, bethanechol and neostigigmine and after 30 minutes of administration of distigmine, and injection was started again to measure data. The drugs were dissolved with distilled water so that administration volume was 0.5 mL/kg. Parameters (bladder volume, the amount of urination, the maximum urine flow rate, the inner pressure of the bladder at the maximum urine flow, bladder compliance) below were measured. The bladder compliance was calculated from intersection point (the threshold of bladder volume, threshold pressure) which was obtained by determining regression line in the respective curves of the inner pressure of the bladder at collection of urine and urinary reflex. The change rate before and after administration of the drug was calculated for the respective parameters and the calibration of significant difference was carried out by a solvent administration group and Dunnett calibration (Table 6 and Table 7).

[5] = 0.3 μM, 30 minutes, change of basic tension, 100 mM KCl contraction = 100%
[6] = 1 μM, 30 minutes, change of basic tension, 100 mM KCl contraction = 100%
[7] = 3 μM, 30 minutes, change of basic tension, 100 mM KCl contraction = 100%
[8] = mean value of twice tests, read-out: AchE IC50
[9] = mean value of twice tests, read-out: BuChE IC50

T1 sequence (P22303 32-617 isoform P22303-2 limits assumed): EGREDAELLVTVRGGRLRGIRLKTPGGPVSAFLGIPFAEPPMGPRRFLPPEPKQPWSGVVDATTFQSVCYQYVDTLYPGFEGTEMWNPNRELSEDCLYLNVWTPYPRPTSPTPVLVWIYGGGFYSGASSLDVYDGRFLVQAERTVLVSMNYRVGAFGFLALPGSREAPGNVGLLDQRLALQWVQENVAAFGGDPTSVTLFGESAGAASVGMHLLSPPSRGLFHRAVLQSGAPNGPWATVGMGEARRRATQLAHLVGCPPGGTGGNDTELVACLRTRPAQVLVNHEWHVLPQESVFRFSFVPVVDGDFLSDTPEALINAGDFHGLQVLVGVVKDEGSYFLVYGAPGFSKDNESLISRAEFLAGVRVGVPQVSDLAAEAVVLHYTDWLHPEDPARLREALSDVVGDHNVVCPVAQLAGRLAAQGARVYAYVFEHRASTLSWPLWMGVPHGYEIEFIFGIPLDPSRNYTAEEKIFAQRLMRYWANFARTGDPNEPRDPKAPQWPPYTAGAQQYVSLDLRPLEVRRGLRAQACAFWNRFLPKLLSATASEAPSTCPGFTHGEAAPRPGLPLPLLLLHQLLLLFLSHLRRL
T2 sequence (P06276 29-602): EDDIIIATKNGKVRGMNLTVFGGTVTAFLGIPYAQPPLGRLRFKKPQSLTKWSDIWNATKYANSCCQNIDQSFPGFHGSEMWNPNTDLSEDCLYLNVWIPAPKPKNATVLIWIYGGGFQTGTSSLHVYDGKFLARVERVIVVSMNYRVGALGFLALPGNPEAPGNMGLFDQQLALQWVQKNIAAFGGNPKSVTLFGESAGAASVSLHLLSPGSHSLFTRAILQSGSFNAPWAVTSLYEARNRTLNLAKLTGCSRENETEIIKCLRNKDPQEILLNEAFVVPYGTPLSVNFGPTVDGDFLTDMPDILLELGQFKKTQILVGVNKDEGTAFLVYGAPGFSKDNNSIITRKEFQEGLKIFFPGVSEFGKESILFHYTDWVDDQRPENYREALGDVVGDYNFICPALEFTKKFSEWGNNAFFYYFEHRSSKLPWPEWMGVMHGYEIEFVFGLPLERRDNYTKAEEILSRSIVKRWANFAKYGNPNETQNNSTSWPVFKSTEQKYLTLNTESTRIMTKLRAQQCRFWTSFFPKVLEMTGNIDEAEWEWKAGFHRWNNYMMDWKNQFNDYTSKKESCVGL

## CN(C)C(=O)Oc1ccc[n+](C)c1 [Pyridostigmine]
Bladder muscle; [5]
  Tension (%): −1.49 ± 0.52%
Bladder muscle; [6]
  Tension (%): 0.04 ± 0.38%
Bladder muscle; [7]
  Tension (%): 2.87 ± 0.85 %
Bladder muscle; 10 μM, 30 minutes, change of basic tension, 100 mM KCl contraction = 100%
  Tension (%): 7.71 ± 1.30 %
Bladder muscle; 30 μM, 30 minutes, change of basic tension, 100 mM KCl contraction = 100%
  Tension (%): 14.38 ± 1.62 %
Bladder muscle
  effect on basic tension: increased basic tension significantly and concentration-dependently

## CCNC(=O)N1CCc2cc(C(=O)CCCCNCCc3ccccc3OC)ccc21.Cl [Compound B4, N-ethyl-5-[5-[[2-(2-methoxyphenyl)ethyl]amino]pentanoyl]-1-indolincarboxamide hydrochloride]
[1]; 0.3 mg/kg
  Bladder compliance, proportion for value before administration: 104.2 ± 8.1
  Maximum urine flow rate, proportion for value before administration: 165.4 ± 14.9
[2]
  pIC50: 6.93
[2]; BuChE IC50/AChE IC50 (Table 3)
  Selectivity b/a: >85
[3]; read-out: BuChE IC50
  pIC50: < 5.00

## O=C(CCCCNCCc1ccccc1Cl)c1cc2c3c(c1)CC(=O)N3CCC2 [Compound B1, 8-[5-[[2-(2-chlorophenyl)ethyl]amino]pentanoyl]-5,6-dihydro-4H-pyrrolo[3,2,1-ij]quinolin-2(1H)-one) hydrochloride]
[1]; 0.1 mg/kg
  Bladder compliance, proportion for value before administration: 105.1 ± 12.9
  Maximum urine flow rate, proportion for value before administration: 170.4 ± 27.8
[2]; BuChE IC50/AChE IC50 (Table 3)
  Selectivity b/a: 100
[2]; [8]
  pIC50: 7.25
[3]; [9]
  pIC50: 5.24

## CN(CCCCC(=O)c1ccc2[nH]c(=O)[nH]c2c1)CCc1ccccc1Cl [Compound B2, 5-[5-[[2-(2-chlorophenyl)ethyl](methyl)amino]pentanoyl]-1,3-dihydro-2H-benzoimidazol-2-one) hydrochloride]
[1]; 0.3 mg/kg
  Bladder compliance, proportion for value before administration: 95.0 ± 5.1
  Maximum urine flow rate, proportion for value before administration: 138.1 ± 13.1
[2]; BuChE IC50/AChE IC50 (Table 3)
  Selectivity b/a: >45
[2]; [8]
  pIC50: 6.65
[3]; [9]
  pIC50: < 5.00

## COc1ccccc1CCNCCCCC(=O)c1ccc2c(c1)n(C)c(=O)n2C [Compound B5, 5-[5-[[2-(2-methoxyphenyl)ethyl]amino]pentanoyl]-1,3-dimethyl-1,3-dihydro-2H-benzoimidazol-2-one) hydrochloride]
[1]; 0.03 mg/kg
  Bladder compliance, proportion for value before administration: 95.0 ± 4.3
  Maximum urine flow rate, proportion for value before administration: 135.5 ± 19.1
[2]; BuChE IC50/AChE IC50 (Table 3)
  Selectivity b/a: >150
[2]; [8]
  pIC50: 7.19
[3]; [9]
  pIC50: < 5.00

## CC(C)NP(=O)(NC(C)C)OP(=O)(NC(C)C)NC(C)C [iso-OMPA, tetraisopropylpyrophosphoramide]
Bladder muscle; Table 5: iso-OMPA 10 μM, Compound A 0 μM
  Tension (%): −1.31 ± 0.21%
Bladder muscle; Table 5: iso-OMPA 100 μM, Compound A 0 μM
  Tension (%): −0.85 ± 0.38%
Bladder muscle
  effect on basic tension: alone did not influence tension either
[3]
  inhibitory activity for human butyrylcholine esterase: showed the inhibitory activity to only butyrylcholine esterase

## CC(C[N+](C)(C)C)OC(N)=O (stereo not shown) [Bethanechol]
[4]; 0.1 mg/kg
  Amount of urination, proportion for value before administration (%): 74.5 ± 13.1%
  At maximum urine flow rate Inner pressure of bladder, proportion for value before administration (%): 107.0 ± 7.1%
  Maximum urine flow rate, proportion for value before administration (%): 72.8 ± 9.8%
  Bladder compliance, proportion for value before administration (%): 75.7 ± 9.8%
  Bladder volume, proportion for value before administration (%): 86.0 ± 2.5%
[4]; 0.3 mg/kg
  Amount of urination, proportion for value before administration (%): 63.5 ± 8.5%
  At maximum urine flow rate Inner pressure of bladder, proportion for value before administration (%): 99.2 ± 6.4%
  Maximum urine flow rate, proportion for value before administration (%): 81.00 ± 12.1%
  Bladder compliance, proportion for value before administration (%): 62.6 ± 6.8 %
  Bladder volume, proportion for value before administration (%): 85.3 ± 6.3%
[4]; 1 mg/kg
  Amount of urination, proportion for value before administration (%): 39.1 ± 8.0 %
  At maximum urine flow rate Inner pressure of bladder, proportion for value before administration (%): 104.9 ± 13.0%
  Maximum urine flow rate, proportion for value before administration (%): 66.1 ± 12.3%
  Bladder compliance, proportion for value before administration (%): 45.3 ± 4.9 %
  Bladder volume, proportion for value before administration (%): 66.3 ± 6.0 %
[4]
  change of the parameters at urination and at collection of urine (text): lowered the amount of urination, bladder volume and bladder compliance significantly

## CN(CCCCCCN(C)C(=O)Oc1ccc[n+](C)c1)C(=O)Oc1ccc[n+](C)c1 [Distigmine]
[4]; 0.03 mg/kg
  Amount of urination, proportion for value before administration (%): 73.9 ± 4.4%
  At maximum urine flow rate Inner pressure of bladder, proportion for value before administration (%): 112.7 ± 6.6%
  Maximum urine flow rate, proportion for value before administration (%): 75.1 ± 6.8%
  Bladder compliance, proportion for value before administration (%): 64.6 ± 6.0%
  Bladder volume, proportion for value before administration (%): 80.6 ± 3.3%
[4]; 0.1 mg/kg
  Amount of urination, proportion for value before administration (%): 89.8 ± 10.3%
  At maximum urine flow rate Inner pressure of bladder, proportion for value before administration (%): 115.9 ± 4.2%
  Maximum urine flow rate, proportion for value before administration (%): 76.4 ± 5.8%
  Bladder compliance, proportion for value before administration (%): 53.4 ± 2.2 %
  Bladder volume, proportion for value before administration (%): 83.6 ± 5.9%
[4]; 0.3 mg/kg
  Amount of urination, proportion for value before administration (%): 65.8 ± 11.9%
  At maximum urine flow rate Inner pressure of bladder, proportion for value before administration (%): 142.4 ± 6.1 %
  Maximum urine flow rate, proportion for value before administration (%): 49.2 ± 7.0%
  Bladder compliance, proportion for value before administration (%): 68.3 ± 7.9%
  Bladder volume, proportion for value before administration (%): 80.0 ± 4.5%
[4]
  change of the parameters at urination and at collection of urine (text): lowered the bladder compliance significantly
[4]; listed as distigmine
  change of the parameters at urination and at collection of urine (text): did not show clear action for the amount of urination and the maximum urine flow rate and increased urination pressure significantly
Bladder muscle; 0.1 μM, 30 minutes, change of basic tension, 100 mM KCl contraction = 100%
  Tension (%): −1.49 ± 0.30%
Bladder muscle; [5]
  Tension (%): −0.78 ± 0.50%
Bladder muscle; [6]
  Tension (%): −0.35 ± 0.73%
Bladder muscle; [7]
  Tension (%): 0.64 ± 0.49 %
Bladder muscle
  effect on basic tension: increased tension slightly but significantly
[2]
  inhibition of the activity of human acetylcholine esterase: inhibited the activity of human acetylcholine esterase
  selectivity for acetylcholine esterase inhibitory activity (text, words): had scarcely selectivity
[2]; BuChE IC50/AChE IC50 (Table 2)
  Selectivity b/a: 1.4
[2]; mean value of twice tests, read-out: Acetylcholine esterase IC50
  pIC50: 6.42
[3]
  inhibitory activity for human butyrylcholine esterase: inhibitory activity was confirmed
[3]; mean value of twice tests, read-out: Butyrylcholine esterase IC50
  pIC50: 6.27

## CN(CCCCC(=O)c1ccc2c(c1)n(C)c(=O)n2C)CCc1ccccc1Cl [Compound B3, 5-[5-[[2-(2-chlorophenyl)ethyl](methyl)amino]pentanoyl]-1,3-dimethyl-1,3-dihydro-2H-benzoimidazol-2-one) hydrochloride]
[1]; 0.1 mg/kg
  Bladder compliance, proportion for value before administration: 94.7 ± 11.1
  Maximum urine flow rate, proportion for value before administration: 150.8 ± 19.4
[2]; BuChE IC50/AChE IC50 (Table 3)
  Selectivity b/a: >350
[2]; [8]
  pIC50: 7.55
[3]; [9]
  pIC50: < 5.00
